According to PubChem BioAssay (NCI):
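All cell lines were grown in 96-well plates and treated with compound for 48 hours. At the TGI there is no net growth.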

Assays:
Test in all cases: NCI tumour cell line growth inhibition, 48 h
SNB-19 CNS = tested on: SNB-19 CNS
DU-145 prostate = tested on: DU-145 prostate
SK-OV-3 ovarian = tested on: SK-OV-3 ovarian
COLO 205 colon = tested on: COLO 205 colon
K-562 leukemia = tested on: K-562 leukemia
MALME-3M melanoma = tested on: MALME-3M melanoma
786-0 renal = tested on: 786-0 renal
NCI-H522 lung = tested on: NCI-H522 lung
MCF7 breast = tested on: MCF7 breast
OVCAR-8 ovarian = tested on: OVCAR-8 ovarian
SK-MEL-2 melanoma = tested on: SK-MEL-2 melanoma
KM12 colon = tested on: KM12 colon
MDA-N = tested on: MDA-N
T-47D breast = tested on: T-47D breast
NCI-H226 lung = tested on: NCI-H226 lung
SK-MEL-28 melanoma = tested on: SK-MEL-28 melanoma
UO-31 renal = tested on: UO-31 renal
PC-3 prostate = tested on: PC-3 prostate
IGROV1 ovarian = tested on: IGROV1 ovarian
UACC-62 melanoma = tested on: UACC-62 melanoma
TK-10 renal = tested on: TK-10 renal
NCI-H460 lung = tested on: NCI-H460 lung
HT29 colon = tested on: HT29 colon
U251 CNS = tested on: U251 CNS
HCT-15 colon = tested on: HCT-15 colon
A498 renal = tested on: A498 renal
BT-549 breast = tested on: BT-549 breast
UACC-257 melanoma = tested on: UACC-257 melanoma
HCT-116 colon = tested on: HCT-116 colon
MOLT-4 leukemia = tested on: MOLT-4 leukemia
EKVX NSCLC = tested on: EKVX NSCLC
OVCAR-5 ovarian = tested on: OVCAR-5 ovarian
SN12C renal = tested on: SN12C renal
MDA-MB-231 breast = tested on: MDA-MB-231 breast
A549 NSCLC = tested on: A549 NSCLC
RPMI-8226 leukemia = tested on: RPMI-8226 leukemia
SF-268 CNS = tested on: SF-268 CNS
CCRF-CEM leukemia = tested on: CCRF-CEM leukemia
SNB-75 CNS = tested on: SNB-75 CNS
NCI/ADR-RES ovarian = tested on: NCI/ADR-RES ovarian
SW-620 colon = tested on: SW-620 colon
HCC-2998 colon = tested on: HCC-2998 colon
M14 melanoma = tested on: M14 melanoma
NCI-H23 lung = tested on: NCI-H23 lung
HOP-62 NSCLC = tested on: HOP-62 NSCLC
SF-539 CNS = tested on: SF-539 CNS
RXF 393 renal = tested on: RXF 393 renal
CAKI-1 renal = tested on: CAKI-1 renal
OVCAR-4 ovarian = tested on: OVCAR-4 ovarian
MDA-MB-435 = tested on: MDA-MB-435
SK-MEL-5 melanoma = tested on: SK-MEL-5 melanoma
LOX IMVI melanoma = tested on: LOX IMVI melanoma
SF-295 CNS = tested on: SF-295 CNS
ACHN renal = tested on: ACHN renal
OVCAR-3 ovarian = tested on: OVCAR-3 ovarian
HOP-92 NSCLC = tested on: HOP-92 NSCLC
SR leukemia = tested on: SR leukemia
HL-60(TB) leukemia = tested on: HL-60(TB) leukemia
HS 578T breast = tested on: HS 578T breast

Measured: TGI

C=CC[C@]1(/C=N/O)CN(S(=O)(=O)CC[Si](C)(C)C)C[C@H]2CC=CC[C@H]21
34.7 µM: SW-620 colon
67.3 µM: OVCAR-8 ovarian
80.7 µM: BT-549 breast
64.5 µM: SK-OV-3 ovarian
32.8 µM: SF-539 CNS
27.3 µM: HCT-116 colon
29.6 µM: RXF 393 renal
39.6 µM: MCF7 breast
46.9 µM: DU-145 prostate
67.5 µM: K-562 leukemia
45 µM: M14 melanoma
52.2 µM: MOLT-4 leukemia
42.8 µM: MDA-N | CAKI-1 renal
34.4 µM: NCI-H226 lung
51.5 µM: KM12 colon
38 µM: NCI-H522 lung
31.8 µM: A498 renal | RPMI-8226 leukemia
30 µM: SN12C renal
40.4 µM: MALME-3M melanoma | LOX IMVI melanoma
51.7 µM: PC-3 prostate
44.2 µM: OVCAR-5 ovarian | MDA-MB-231 breast
31 µM: SF-295 CNS
32.6 µM: COLO 205 colon | SK-MEL-2 melanoma
60.6 µM: UACC-257 melanoma
39 µM: HOP-62 NSCLC
32.2 µM: U251 CNS
> 100 µM: T-47D breast | UO-31 renal | HCT-15 colon | SF-268 CNS | NCI/ADR-RES ovarian | NCI-H23 lung | MDA-MB-435 | SK-MEL-5 melanoma
64.9 µM: UACC-62 melanoma
36.8 µM: TK-10 renal
30.7 µM: A549 NSCLC
54.2 µM: SNB-75 CNS
34.8 µM: IGROV1 ovarian
32.5 µM: 786-0 renal
54.7 µM: SK-MEL-28 melanoma
42.3 µM: SNB-19 CNS
31.9 µM: HCC-2998 colon
58.5 µM: EKVX NSCLC
40.7 µM: CCRF-CEM leukemia
38.5 µM: NCI-H460 lung
34.1 µM: OVCAR-4 ovarian
30.8 µM: HT29 colon

CCN1CCCc2cc3c(C(F)(F)F)cc(=O)oc3cc21
93.1 µM: PC-3 prostate
63.2 µM: RXF 393 renal
84 µM: HOP-92 NSCLC
96.7 µM: SNB-75 CNS
72.3 µM: SK-MEL-5 melanoma
not listed: MALME-3M melanoma | RPMI-8226 leukemia | CCRF-CEM leukemia | NCI/ADR-RES ovarian | SR leukemia | HL-60(TB) leukemia | HS 578T breast
> 100 µM: all other assays above

CCOC(=O)CCC(NC(=O)c1ccc(Nc2nc3ccc(C(F)(F)F)cc3nc2-c2ccccc2)cc1)C(=O)OCC (stereo not given)
> 64.2 µM: LOX IMVI melanoma
35.3 µM: UACC-257 melanoma
75.4 µM: MDA-N
85.1 µM: HS 578T breast
55.2 µM: NCI-H522 lung
> 85.9 µM: HCC-2998 colon
77.8 µM: MOLT-4 leukemia
60.4 µM: T-47D breast
76.8 µM: MALME-3M melanoma
49.7 µM: SK-MEL-2 melanoma
44.2 µM: UACC-62 melanoma
58.9 µM: MDA-MB-231 breast
29.7 µM: COLO 205 colon
76 µM: OVCAR-3 ovarian
> 87.2 µM: UO-31 renal
46.2 µM: M14 melanoma
not listed: SK-OV-3 ovarian | PC-3 prostate | A498 renal
> 100 µM: all other assays above

COc1c(=O)cc2cc[nH]c3cc[nH]c1c23
47.8 µM: OVCAR-3 ovarian
92.6 µM: MCF7 breast
12.1 µM: NCI-H522 lung
not listed: T-47D breast | SF-268 CNS | SNB-75 CNS | HOP-62 NSCLC | SF-539 CNS
> 100 µM: all other assays above
